According to ChEMBL document CHEMBL5291721, “A preclinical secondary pharmacology resource illuminates target-adverse drug reaction associations of marketed drugs” (Nat Commun, 2023):

What was measured:
[1] = target: Beta-3 adrenergic receptor (Homo sapiens, UniProt P13945)
Androgen receptor [2] = target: T1, Androgen receptor (Rattus norvegicus, UniProt P15207)
T1 sequence (P15207 whole entry): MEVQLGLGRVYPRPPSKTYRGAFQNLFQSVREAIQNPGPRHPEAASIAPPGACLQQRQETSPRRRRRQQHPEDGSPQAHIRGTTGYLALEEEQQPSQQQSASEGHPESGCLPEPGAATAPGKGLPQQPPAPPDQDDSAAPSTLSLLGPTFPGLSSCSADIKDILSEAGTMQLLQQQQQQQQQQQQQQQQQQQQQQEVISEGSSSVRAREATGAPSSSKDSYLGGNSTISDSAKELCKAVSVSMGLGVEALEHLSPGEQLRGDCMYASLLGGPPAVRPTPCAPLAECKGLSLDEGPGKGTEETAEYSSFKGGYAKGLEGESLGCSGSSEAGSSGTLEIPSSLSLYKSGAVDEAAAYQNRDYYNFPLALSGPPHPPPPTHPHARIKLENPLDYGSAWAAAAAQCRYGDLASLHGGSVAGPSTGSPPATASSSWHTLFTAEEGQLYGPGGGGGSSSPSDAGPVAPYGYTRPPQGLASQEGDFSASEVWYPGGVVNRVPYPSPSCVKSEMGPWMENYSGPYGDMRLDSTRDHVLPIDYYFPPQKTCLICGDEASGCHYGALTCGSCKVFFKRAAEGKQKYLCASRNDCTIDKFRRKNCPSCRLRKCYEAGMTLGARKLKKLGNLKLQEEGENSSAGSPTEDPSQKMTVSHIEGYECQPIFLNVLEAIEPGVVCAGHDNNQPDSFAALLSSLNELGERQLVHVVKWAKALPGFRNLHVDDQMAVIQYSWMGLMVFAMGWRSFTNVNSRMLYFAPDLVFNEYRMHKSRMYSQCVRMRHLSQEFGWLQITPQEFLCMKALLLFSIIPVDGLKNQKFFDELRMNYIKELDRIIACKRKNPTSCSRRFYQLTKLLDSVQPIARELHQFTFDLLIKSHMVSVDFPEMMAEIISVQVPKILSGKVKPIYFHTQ

[3] = target: Voltage-dependent N-type calcium channel subunit alpha-1B (Rattus norvegicus, UniProt Q02294); type: functional
[4] = target: Neurotensin receptor type 1 (Homo sapiens, UniProt P30989)
Chain of Neurotensin receptor type 1 (P30989 whole entry): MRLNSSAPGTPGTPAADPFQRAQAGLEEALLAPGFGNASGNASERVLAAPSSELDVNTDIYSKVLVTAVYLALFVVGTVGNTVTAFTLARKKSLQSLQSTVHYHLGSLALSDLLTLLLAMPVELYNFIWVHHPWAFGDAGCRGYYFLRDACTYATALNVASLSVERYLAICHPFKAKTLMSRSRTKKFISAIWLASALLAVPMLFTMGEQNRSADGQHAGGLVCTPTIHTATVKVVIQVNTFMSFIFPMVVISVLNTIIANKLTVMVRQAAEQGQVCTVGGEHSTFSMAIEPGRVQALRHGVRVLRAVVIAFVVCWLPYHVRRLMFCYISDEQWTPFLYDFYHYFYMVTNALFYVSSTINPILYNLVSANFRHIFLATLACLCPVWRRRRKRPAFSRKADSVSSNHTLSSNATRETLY

Progesterone receptor = target: T2, Progesterone receptor (Homo sapiens, UniProt P06401)
T2 sequence (P06401 whole entry): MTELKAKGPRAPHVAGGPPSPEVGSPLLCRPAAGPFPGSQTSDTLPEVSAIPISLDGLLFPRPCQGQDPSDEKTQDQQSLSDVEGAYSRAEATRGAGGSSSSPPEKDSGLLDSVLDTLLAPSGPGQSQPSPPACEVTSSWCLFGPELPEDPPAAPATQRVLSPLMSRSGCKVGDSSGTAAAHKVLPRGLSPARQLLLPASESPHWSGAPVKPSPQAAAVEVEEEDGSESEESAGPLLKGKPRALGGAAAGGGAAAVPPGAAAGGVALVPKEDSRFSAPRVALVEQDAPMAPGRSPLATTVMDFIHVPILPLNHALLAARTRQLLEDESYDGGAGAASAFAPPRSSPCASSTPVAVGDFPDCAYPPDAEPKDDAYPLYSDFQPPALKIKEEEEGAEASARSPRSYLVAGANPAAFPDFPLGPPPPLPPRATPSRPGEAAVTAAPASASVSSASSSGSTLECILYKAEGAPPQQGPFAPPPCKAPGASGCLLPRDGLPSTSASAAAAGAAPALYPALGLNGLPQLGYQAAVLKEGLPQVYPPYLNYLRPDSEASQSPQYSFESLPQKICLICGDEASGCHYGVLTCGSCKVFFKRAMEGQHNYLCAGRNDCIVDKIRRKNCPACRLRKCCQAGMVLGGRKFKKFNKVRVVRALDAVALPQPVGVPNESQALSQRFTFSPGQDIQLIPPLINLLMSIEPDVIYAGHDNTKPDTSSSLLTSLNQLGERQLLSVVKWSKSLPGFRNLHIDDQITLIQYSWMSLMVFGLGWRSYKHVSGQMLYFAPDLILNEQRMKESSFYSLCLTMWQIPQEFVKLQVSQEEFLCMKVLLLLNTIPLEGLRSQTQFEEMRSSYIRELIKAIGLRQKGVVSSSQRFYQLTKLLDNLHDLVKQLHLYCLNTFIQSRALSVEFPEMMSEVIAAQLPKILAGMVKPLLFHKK

D(1A) dopamine receptor = D(1A) dopamine receptor (Homo sapiens, UniProt P21728)
Chain of D(1A) dopamine receptor (P21728 whole entry): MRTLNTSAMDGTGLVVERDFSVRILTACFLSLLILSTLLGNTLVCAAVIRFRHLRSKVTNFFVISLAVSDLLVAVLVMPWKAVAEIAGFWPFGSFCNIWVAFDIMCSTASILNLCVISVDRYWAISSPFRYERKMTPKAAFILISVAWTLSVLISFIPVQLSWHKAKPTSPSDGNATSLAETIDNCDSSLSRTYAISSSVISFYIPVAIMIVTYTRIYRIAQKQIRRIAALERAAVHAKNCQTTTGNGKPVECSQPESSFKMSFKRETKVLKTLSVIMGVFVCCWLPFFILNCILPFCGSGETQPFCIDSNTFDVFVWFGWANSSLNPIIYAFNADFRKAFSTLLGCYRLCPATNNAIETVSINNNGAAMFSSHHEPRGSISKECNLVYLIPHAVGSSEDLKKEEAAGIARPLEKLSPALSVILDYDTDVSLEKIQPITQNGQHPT

[5] = target: T3, Gamma-aminobutyric acid receptor subunit alpha-1/alpha-2/beta-2/gamma-2 (Homo sapiens, UniProt P14867+P18507+P47869+P47870); type: functional, cell-based
T3 sequence (P14867 whole entry): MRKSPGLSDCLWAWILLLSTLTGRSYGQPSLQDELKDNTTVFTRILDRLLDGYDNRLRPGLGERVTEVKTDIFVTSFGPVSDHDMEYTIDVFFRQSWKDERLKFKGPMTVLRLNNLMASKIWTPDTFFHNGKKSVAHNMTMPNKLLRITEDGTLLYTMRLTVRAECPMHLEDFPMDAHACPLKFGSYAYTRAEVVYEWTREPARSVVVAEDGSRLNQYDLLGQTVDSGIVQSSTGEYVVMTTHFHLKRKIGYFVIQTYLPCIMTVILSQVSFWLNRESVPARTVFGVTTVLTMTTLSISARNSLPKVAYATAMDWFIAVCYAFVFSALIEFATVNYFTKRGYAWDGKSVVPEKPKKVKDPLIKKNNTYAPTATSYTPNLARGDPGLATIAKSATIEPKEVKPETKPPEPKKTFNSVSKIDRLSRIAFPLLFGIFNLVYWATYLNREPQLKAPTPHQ
T3 sequence (P47870 whole entry): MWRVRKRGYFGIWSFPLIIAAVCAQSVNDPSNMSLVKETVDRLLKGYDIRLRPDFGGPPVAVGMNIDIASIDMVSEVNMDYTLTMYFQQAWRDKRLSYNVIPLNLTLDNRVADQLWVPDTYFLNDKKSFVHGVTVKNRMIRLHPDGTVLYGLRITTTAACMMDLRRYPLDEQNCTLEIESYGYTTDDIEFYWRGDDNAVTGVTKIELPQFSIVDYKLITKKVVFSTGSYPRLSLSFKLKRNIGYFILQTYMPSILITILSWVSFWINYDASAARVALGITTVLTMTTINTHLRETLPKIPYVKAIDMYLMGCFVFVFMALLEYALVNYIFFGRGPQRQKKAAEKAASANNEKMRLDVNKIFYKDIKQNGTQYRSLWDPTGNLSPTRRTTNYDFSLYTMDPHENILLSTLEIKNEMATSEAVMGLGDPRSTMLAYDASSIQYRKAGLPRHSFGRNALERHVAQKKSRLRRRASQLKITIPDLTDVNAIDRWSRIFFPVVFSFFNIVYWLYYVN
T3 sequence (P18507 whole entry): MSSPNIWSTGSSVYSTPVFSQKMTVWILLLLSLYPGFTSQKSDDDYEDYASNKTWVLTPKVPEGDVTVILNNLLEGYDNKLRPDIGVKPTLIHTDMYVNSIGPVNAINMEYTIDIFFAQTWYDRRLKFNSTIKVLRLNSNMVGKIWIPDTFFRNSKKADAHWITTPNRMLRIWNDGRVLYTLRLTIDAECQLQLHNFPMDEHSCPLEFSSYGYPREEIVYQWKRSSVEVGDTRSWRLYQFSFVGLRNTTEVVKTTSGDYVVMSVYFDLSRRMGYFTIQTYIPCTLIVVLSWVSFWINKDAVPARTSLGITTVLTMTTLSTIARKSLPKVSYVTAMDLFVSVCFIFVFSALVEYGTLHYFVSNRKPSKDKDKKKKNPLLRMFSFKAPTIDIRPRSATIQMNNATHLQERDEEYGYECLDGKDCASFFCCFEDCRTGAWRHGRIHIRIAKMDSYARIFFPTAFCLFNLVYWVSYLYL
T3 sequence (P47869 whole entry): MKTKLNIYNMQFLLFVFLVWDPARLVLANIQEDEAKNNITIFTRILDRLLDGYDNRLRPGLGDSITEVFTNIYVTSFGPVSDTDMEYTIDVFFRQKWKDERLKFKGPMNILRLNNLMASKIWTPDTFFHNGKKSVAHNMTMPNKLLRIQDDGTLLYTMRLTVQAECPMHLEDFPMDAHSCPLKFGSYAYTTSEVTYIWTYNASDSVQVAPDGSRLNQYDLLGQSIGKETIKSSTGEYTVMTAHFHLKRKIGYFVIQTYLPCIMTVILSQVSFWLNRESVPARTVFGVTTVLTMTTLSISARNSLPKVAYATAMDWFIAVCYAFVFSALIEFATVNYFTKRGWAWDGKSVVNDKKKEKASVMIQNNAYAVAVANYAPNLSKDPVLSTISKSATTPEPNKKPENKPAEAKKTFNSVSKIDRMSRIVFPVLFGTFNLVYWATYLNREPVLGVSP

[6] = target: T3, Gamma-aminobutyric acid receptor subunit alpha-1/alpha-2/beta-2/gamma-2; type: functional, cell-based; remark: listed apart in the source
[7] = target: T4, Peroxisome proliferator-activated receptor gamma (Homo sapiens, UniProt P37231); type: functional
T4 sequence (P37231 whole entry): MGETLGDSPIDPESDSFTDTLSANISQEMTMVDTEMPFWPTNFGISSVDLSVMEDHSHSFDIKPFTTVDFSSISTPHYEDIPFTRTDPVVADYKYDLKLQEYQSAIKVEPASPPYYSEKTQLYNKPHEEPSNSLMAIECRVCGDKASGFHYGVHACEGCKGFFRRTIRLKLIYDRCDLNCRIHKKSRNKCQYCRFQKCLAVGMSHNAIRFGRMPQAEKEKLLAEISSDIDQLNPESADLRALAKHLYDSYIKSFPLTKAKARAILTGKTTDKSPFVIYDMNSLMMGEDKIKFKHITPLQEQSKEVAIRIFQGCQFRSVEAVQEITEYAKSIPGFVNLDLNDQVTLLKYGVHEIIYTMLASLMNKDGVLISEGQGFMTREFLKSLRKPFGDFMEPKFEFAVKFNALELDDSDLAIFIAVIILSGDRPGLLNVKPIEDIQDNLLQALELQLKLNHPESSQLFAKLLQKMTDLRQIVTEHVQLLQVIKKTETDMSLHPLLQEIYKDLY

Androgen receptor [8] = target: T1, Androgen receptor; type: functional
[9] = target: 5-hydroxytryptamine receptor 2A (Homo sapiens, UniProt P28223)
Chain of 5-hydroxytryptamine receptor 2A (P28223 whole entry): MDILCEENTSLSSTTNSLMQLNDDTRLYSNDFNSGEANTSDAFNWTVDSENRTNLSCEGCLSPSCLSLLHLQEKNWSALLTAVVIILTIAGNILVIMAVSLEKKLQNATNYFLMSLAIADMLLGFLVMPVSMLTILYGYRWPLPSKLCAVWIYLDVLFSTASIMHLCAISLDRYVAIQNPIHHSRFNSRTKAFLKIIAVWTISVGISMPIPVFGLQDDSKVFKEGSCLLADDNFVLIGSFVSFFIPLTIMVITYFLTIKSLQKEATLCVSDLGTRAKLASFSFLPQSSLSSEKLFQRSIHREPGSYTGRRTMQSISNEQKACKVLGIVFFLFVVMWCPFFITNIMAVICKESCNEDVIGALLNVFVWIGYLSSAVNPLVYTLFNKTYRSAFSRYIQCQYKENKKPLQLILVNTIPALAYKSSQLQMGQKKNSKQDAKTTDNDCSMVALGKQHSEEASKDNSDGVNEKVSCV
Note: assay procedure not described here.

Chain of Beta-3 adrenergic receptor (P13945 whole entry): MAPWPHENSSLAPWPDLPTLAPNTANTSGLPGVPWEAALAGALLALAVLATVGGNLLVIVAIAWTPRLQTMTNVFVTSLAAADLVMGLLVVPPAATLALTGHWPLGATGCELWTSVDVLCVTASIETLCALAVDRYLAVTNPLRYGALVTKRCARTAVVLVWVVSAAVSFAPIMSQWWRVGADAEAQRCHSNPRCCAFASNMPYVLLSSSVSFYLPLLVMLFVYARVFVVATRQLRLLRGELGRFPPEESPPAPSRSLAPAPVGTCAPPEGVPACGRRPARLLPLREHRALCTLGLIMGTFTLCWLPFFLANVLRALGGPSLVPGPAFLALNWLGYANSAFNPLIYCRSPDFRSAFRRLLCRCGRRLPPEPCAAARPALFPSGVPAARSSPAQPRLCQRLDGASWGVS

Row | SMILES | AC50 [1] [µM] | AC50 [3] [µM] | AC50 [4] [µM] | AC50 (Progesterone receptor) [µM] | AC50 (D(1A) dopamine receptor) [µM] | AC50 [5] [µM] | other results
1 | CC(=O)OCC(CCn1cnc2cnc(N)nc21)COC(C)=O [FAMCICLOVIR] | > 30 | > 10 | > 30 | > 30 | > 10 |  | AC50 (Androgen receptor [2]): > 30 µM
2 | Nc1nc(F)nc2c1ncn2[C@@H]1O[C@H](COP(=O)(O)O)[C@@H](O)[C@@H]1O [FLUDARABINE PHOSPHATE] |  |  |  |  |  |  | AC50 (Androgen receptor [2]): > 30 µM
3 | O=C(O)c1ccccc1OP(=O)(O)O [FOSFOSAL] |  |  |  |  |  | > 30 | AC50 [6]: > 30 µM; AC50 [7]: > 30 µM
4 | CCCCCCOC(=O)CCC(=O)CN [HEXAMINOLEVULINATE] |  |  |  |  |  |  | AC50 (Androgen receptor [8]): > 30 µM
5 | COC1=C(OC)C(=O)C(CCCCCCCCCCO)=C(C)C1=O [IDEBENONE] | > 30 | > 10 | > 30 | 27.6 | > 10 |  | AC50 (Androgen receptor [2]): > 30 µM
6 | Nc1nc2c(c(=O)[nH]1)N(C=O)C(CNc1ccc(C(=O)N[C@@H](CCC(=O)O)C(=O)O)cc1)CN2 (stereo partly specified) [LEUCOVORIN] |  |  |  |  |  | > 30 | AC50 (Androgen receptor [8]): > 30 µM; AC50 [7]: > 30 µM
7 | CC(C)OC(=O)C(C(=O)OC(C)C)=C1SC=CS1 [MALOTILATE] |  |  |  |  |  |  | AC50 (Androgen receptor [8]): > 30 µM
8 | O=C1CN=C(c2ccccc2)c2cc(Cl)ccc2N1 [NORDAZEPAM] | > 30 | > 10 | 14 | > 30 | > 10 |  | 
9 | CC(CCc1ccccc1)NC(C)C(O)c1ccc(O)cc1 (stereo unspecified) [NYLIDRIN] | > 30 | > 10 | > 30 | > 30 | > 10 |  | AC50 [9]: 2.5 µM
10 | CCn1cc(C(=O)O)c(=O)c2cc(F)c(N3CCN(C)CC3)cc21 [PEFLOXACIN] |  |  |  |  |  | > 30 | AC50 [7]: > 30 µM
11 | CC1(C)C(C=C(Cl)Cl)C1C(=O)OCc1cccc(Oc2ccccc2)c1 (stereo unspecified) [PERMETHRIN] |  |  |  |  |  |  | AC50 (Androgen receptor [2]): > 30 µM
12 | CC(=O)c1ccc2c(c1)N(CCCN1CCC(CCO)CC1)c1ccccc1S2 [PIPERACETAZINE] |  |  |  |  |  |  | AC50 [9]: 0.012 µM
13 | C[n+]1ccccc1/C=N/O [PRALIDOXIME] |  |  |  |  |  | > 30 | 
14 | CCCNC(C)C(=O)Nc1ccccc1C (stereo unspecified) [PRILOCAINE] |  |  |  |  |  | > 30 | AC50 [7]: > 30 µM
15 | CCN(CC)CC(=O)Oc1ccc(NC(C)=O)cc1 [PROPACETAMOL] |  |  |  |  |  |  | AC50 (Androgen receptor [8]): > 30 µM
16 | Cc1cc2nc3c(=O)[nH]c(=O)nc-3n(C[C@H](O)[C@H](O)[C@H](O)COP(=O)(O)O)c2cc1C [RIBOFLAVIN 5'-PHOSPHATE] |  |  |  |  |  |  | AC50 (Androgen receptor [8]): > 3 µM
17 | CC(C)CC(N(C)C)C1(c2ccc(Cl)cc2)CCC1 (stereo unspecified) [SIBUTRAMINE] | > 30 | > 10 | > 30 | > 30 | > 10 |  | 
18 | [H]/N=C(/N)N[C@H]1[C@H](O)[C@@H](O)[C@H](O[C@@H]2O[C@@H](C)[C@](O)(C=O)[C@H]2O[C@@H]2O[C@@H](CO)[C@H](O)[C@@H](O)[C@@H]2NC)[C@@H](N/C(N)=N\[H])[C@@H]1O [STREPTOMYCIN] | > 30 | > 10 | > 30 | > 30 | > 10 |  | 
19 | COc1cc2c(Nc3ccc(Br)cc3F)ncnc2cc1OCC1CCN(C)CC1 [VANDETANIB] |  |  |  |  |  | > 30 | AC50 [6]: > 30 µM; AC50 [7]: > 30 µM
20 | COc1ccc(C(CN(C)C)C2(O)CCCCC2)cc1 (stereo unspecified) [VENLAFAXINE] |  | > 10 |  | > 30 |  |  | 
